Assay [1] is described as follows: (§1) In Vitro GIRK Thallium Flux Assay (2.5 minutes): Human Embryonic Kidney (HEK-293) cell lines co-expressing rat mGlu receptors 2, 3, 4, 6, 7 or 8 and G protein-coupled inwardly-rectifying potassium (GIRK) channels_ENREF_54 were grown in Growth Media containing 45% DMEM, 45% F-12, 10% FBS, 20 mM HEPES, 2 mM L-glutamine, antibiotic/antimycotic, non-essential amino acids, 700 μg/ml G418, and 0.6 μg/ml puromycin at 37° C. in the presence of 5% CO2. All cell culture reagents were purchased from Invitrogen Corp. (Carlsbad, Calif.) unless otherwise noted. Compound activity at the group II (mGlu2 and mGlu3) mGlus was assessed using thallium flux through GIRK channels. Briefly, cells were plated into 384-well, black-walled, clear-bottomed poly-D-lysine-coated plates at a density of 15,000 cells/20 μL/well in DMEM containing 10% dialyzed FBS, 20 mM HEPES, and 100 units/mL penicillin/streptomycin (assay media). Plated cells were incubated overnight at 37° C. in the presence of 5% CO2. The following day, the medium was exchanged from the cells to assay buffer [Hanks' balanced salt solution (Invitrogen) containing 20 mM HEPES, pH 7.3] using an ELX405 microplate washer (BioTek), leaving 20 μL/well, followed by the addition of 20 μL/well FluoZin2-AM (330 nM final concentration) indicator dye (Invitrogen; prepared as a stock in DMSO and mixed in a 1:1 ratio with Pluronic acid F-127) in assay buffer. Cells were incubated for 1 h at room temperature, and the dye exchanged to assay buffer using an ELX405, leaving 20 μL/well. Test compounds were diluted to 2 times their final desired concentration in assay buffer (0.3% DMSO final concentration). Agonists were diluted in thallium buffer [125 mM sodium bicarbonate (added fresh the morning of the experiment), 1 mM magnesium sulfate, 1.8 mM calcium sulfate, 5 mM glucose, 12 mM thallium sulfate, and 10 mM HEPES, pH 7.3] at 5 times the final concentration to be assayed. Cell plates and compound plates were loaded onto a kinetic imaging plate reader (FDSS 6000 or 7000; Hamamatsu Corporation, Bridgewater, N.J.). Appropriate baseline readings were taken (10 images at 1 Hz; excitation, 470±20 nm; emission, 540±30 nm) and test compounds were added in a 20 μL volume and incubated for either 2.5 min or 60 min as indicated before the addition of 10 μL of thallium buffer with or without agonist. After the addition of agonist, data were collected for approximately an additional 2.5 min. Data were analyzed using Excel (Microsoft Corp, Redmond, Wash.). The slope of the fluorescence increase beginning 5 s after thallium/agonist addition and ending 15 s after thallium/agonist addition was calculated, corrected to vehicle and maximal agonist control slope values, and plotted in using either XLfit (ID Business Solutions Ltd) or Prism software (GraphPad Software, San Diego, Calif.) to generate concentration-response curves. Potencies were calculated from fits using a four-point parameter logistic equation. For concentration-response curve experiments, compounds were serially diluted 1:3 into 10 point concentration response curves and were transferred to daughter plates using an Echo acoustic plate reformatter (Labcyte, Sunnyvale, Calif.). Test compounds were applied and followed by EC80 concentrations of glutamate. To be noted: HEK293, 2.5 min.

Assay [2] can be described thus: as §1, with “Assay (60” for “Assay (2.5”, “additional 60” for “additional 2.5”. Conditions: HEK293, 1 h.
Assay [3] in a line: as §1. Conditions: HEK293, 2.5 min. This is another data set of the same source.
A short description of assay [4]: as §1, with “Assay (60” for “Assay (2.5”, “additional 60” for “additional 2.5”. Conditions: HEK293, 1 h. This is another data set of the same source.

Where only a bound is given, the exact number is not on record here.

For orientation: EC50 means the concentration giving half of the maximal effect. In the case of `Clc1ccccc1-c1cccc(-c2csc(-c3ccccc3)n2)c1`, the EC50 in assay [1] was greater than 30 µM; in assay [2] it was greater than 10 µM; in assay [3] it was greater than 10 µM; in assay [4] it was greater than 30 µM.
For `c1ccc(-c2cccc(-c3csc(-c4ccc5ccccc5c4)n3)c2)cc1`, the EC50 in assay [1] was greater than 10 µM; in assay [2], greater than 10 µM; in assay [3], greater than 30 µM; in assay [4], 4.98 µM.
For the compound `Cc1cc(NC(=O)OC(C)(C)C)c(NC(=O)CC(=O)c2cccc(OCc3ccccc3)c2)cc1C(F)(F)F`, the 50% effective concentration (EC50) in assay [1] was greater than 10 µM; in assay [2], 0.74 µM; in assay [3], 2.93 µM; in assay [4] it was 2.36 µM.
Taken in the same sequence, the figures for `C(=C\c1nc(-c2cccc(-c3ccccc3)c2)cs1)/c1ccccc1` were 3.47 µM, greater than 10 µM, greater than 10 µM and greater than 10 µM.
Taken in the same sequence, the figures for `COc1ccc(-c2nc(-c3cccc(-c4ccccc4)c3)cs2)cc1OC` were 2.58 µM, greater than 10 µM, 4.02 µM and 1.1 µM.
Regarding `c1ccc(-c2nc(-c3cccc(-c4ccco4)c3)nn2-c2ccccc2)cc1`, the EC50 is greater than 10 µM in assay [1], greater than 30 µM in assay [2], 0.21 µM in assay [3] and greater than 30 µM in assay [4].
With `c1ccc(Cn2nc(-c3cccc(-c4ccccc4)c3)nc2-c2ccccc2)cc1`, the 50% effective concentration (EC50) in assay [1] is greater than 10 µM; in assay [2], 1.4 µM; in assay [3] it was 3.9 µM; in assay [4], 2.71 µM.
Regarding `Fc1ccc(-c2cccc(-c3csc(-c4cc5ccccc5o4)n3)c2)cc1`, the half-maximal effective concentration (EC50) in assay [1] was 2.57 µM; in assay [2], greater than 10 µM; in assay [3], 3.32 µM; in assay [4], 1.93 µM.
On to `Clc1ccc(-c2cccc(-c3csc(-c4ccccc4)n3)c2)cc1`, for which the EC50 in assay [1] was 0.57 µM; in assay [2], 1.33 µM; in assay [3], 0.79 µM; in assay [4], 0.8 µM.
Turning to `Fc1ccc(-c2csc(-c3ccccc3)n2)cc1`, the EC50 in assay [1] was greater than 10 µM; in assay [2], greater than 30 µM; in assay [3] it was greater than 30 µM; in assay [4] it was greater than 30 µM.
As to `c1ccc(-c2cccc(-c3nsc(-c4ccccc4)n3)c2)cc1`, the EC50 in assay [1] is 0.32 µM; in assay [2], 0.45 µM; in assay [3], 2.28 µM; in assay [4], 0.05 µM.
Taken in the same sequence, the figures for `Cc1cc(NC(=O)OC(C)(C)C)c(NC(=O)CC(=O)c2cccc(Oc3ccccc3)c2)cc1C(F)(F)F` were 2.21 µM, 1.93 µM, 2.62 µM and 1.19 µM.
With `c1ccc(-c2cccc(-c3coc(-c4ccccc4)n3)c2)cc1`, the concentration for a half-maximal effect (EC50) was greater than 10 µM in assay [1], greater than 30 µM in assay [2], greater than 30 µM in assay [3] and greater than 10 µM in assay [4].
Take `Fc1ccc(-c2cccc(-c3nsc(-c4ccoc4)n3)c2)cc1`: the concentration for a half-maximal effect (EC50) in assay [1] is 3.63 µM; in assay [2], greater than 10 µM; in assay [3], greater than 10 µM; in assay [4] it was 3.71 µM.
Regarding `FC(F)(F)c1ccc(-c2nc(-c3cccc(-c4ccccc4)c3)nn2-c2ccccc2)cn1`, the half-maximal effective concentration (EC50) in assay [1] is greater than 10 µM; in assay [2], 0.85 µM; in assay [3] it was 5.56 µM; in assay [4], greater than 10 µM.
On to `Fc1ccc(-c2cccc(-c3csc(-c4ccccc4)c3)c2)cc1`, for which the EC50 in assay [1], in assay [2], in assay [3] and in assay [4] was greater than 10 µM throughout.
Regarding `O/N=C\c1cc(-c2cccc(-c3csc(-c4ccccc4)n3)c2)ccc1F`, the concentration giving a half-maximal response (EC50) in assay [1] was greater than 30 µM; in assay [2], greater than 10 µM; in assay [3], greater than 30 µM; in assay [4], greater than 10 µM.
For the compound `Fc1ccccc1-c1cccc(-c2nc(-c3ccccc3)n(-c3ccccc3)n2)c1`, the EC50 was greater than 10 µM in assay [1], 2.29 µM in assay [2], 4.45 µM in assay [3] and greater than 10 µM in assay [4].
As for `c1ccc(-c2cccc(-c3nc(-c4ccoc4)n(-c4ccccc4)n3)c2)cc1`, the EC50 was greater than 10 µM in assay [1], 2.63 µM in assay [2], greater than 10 µM in assay [3] and 3.78 µM in assay [4].
`CC(C)n1nc(-c2cccc(-c3ccccc3)c2)nc1-c1ccccc1`: the EC50 is greater than 10 µM in assay [1], greater than 10 µM in assay [2], greater than 10 µM in assay [3] and greater than 30 µM in assay [4].
Consider `Fc1cccc(-c2cccc(-c3nsc(-c4ccoc4)n3)c2)c1`, for which the concentration giving a half-maximal response (EC50) in assay [1] was 0.17 µM; in assay [2], 1.23 µM; in assay [3], 3.43 µM; in assay [4] it was 0.11 µM.
For `c1ccc(-c2cccc(-c3csc(-c4cccc5ccccc45)n3)c2)cc1` the same measures were greater than 10 µM, greater than 30 µM, greater than 30 µM and greater than 10 µM.
Taken in the same sequence, the figures for `Clc1cccc(-c2cccc(-c3csc(-c4ccccc4)n3)c2)c1` were greater than 10 µM, greater than 10 µM, greater than 10 µM and greater than 10 µM.
For `Clc1ccc(-c2nc(-c3cccc(-c4ccccc4)c3)cs2)cn1` the same measures were 3.83 µM, 0.83 µM, greater than 10 µM and 0.27 µM.
Regarding `c1ccc(-c2cccc(-c3cc(-c4ccccc4)on3)c2)cc1`, the EC50 was greater than 10 µM in assay [1], greater than 10 µM in assay [2], greater than 10 µM in assay [3] and greater than 30 µM in assay [4].
Consider `COc1ccc(-n2nc(-c3cccc(-c4ccccc4)c3)nc2-c2ccccc2)cc1`, for which the EC50 in assay [1] is greater than 10 µM; in assay [2], 0.46 µM; in assay [3] it was 2.96 µM; in assay [4] it was 6.58 µM.
Taken in the same sequence, the figures for `Cn1nc(-c2cccc(-c3ccccc3)c2)nc1-c1ccccc1` were 0.59 µM, greater than 10 µM, greater than 10 µM and 1.48 µM.
As for `Fc1cccc(-c2cccc(-c3nc(-c4ccccc4)n(-c4ccccc4)n3)c2)c1`, the 50% effective concentration (EC50) is greater than 10 µM in assay [1], 1.51 µM in assay [2], 3.11 µM in assay [3] and greater than 10 µM in assay [4].
With `c1ccc(-c2cccc(-c3nc(-c4cccs4)n(-c4ccccc4)n3)c2)cc1`, the 50% effective concentration (EC50) is greater than 10 µM in assay [1], 1.68 µM in assay [2], 4.29 µM in assay [3] and 3.67 µM in assay [4].
Regarding `c1ccc(-c2cccc(-c3n[nH]c(-c4ccccc4)n3)c2)cc1`, the 50% effective concentration (EC50) was greater than 10 µM in assay [1], greater than 30 µM in assay [2], greater than 30 µM in assay [3] and greater than 30 µM in assay [4].
`Fc1ccccc1-c1cccc(-c2nsc(-c3ccccc3)n2)c1`: the half-maximal effective concentration (EC50) in assay [1] is 0.89 µM; in assay [2], greater than 10 µM; in assay [3] it was greater than 10 µM; in assay [4], 0.11 µM.
Turning to `c1ccc(-c2cccc(-c3noc(-c4ccccc4)n3)c2)cc1`, the concentration for a half-maximal effect (EC50) in assay [1] is 1.33 µM; in assay [2] it was greater than 10 µM; in assay [3], greater than 10 µM; in assay [4], 0.79 µM.
In the case of `COc1ccccc1-c1cccc(-c2csc(-c3ccccc3)n2)c1`, the EC50 in assay [1] was 1.81 µM; in assay [2], greater than 10 µM; in assay [3] it was greater than 10 µM; in assay [4] it was 1.35 µM.
Take `Fc1ccc(-c2cccc(-c3nsc(-c4ccccc4)n3)c2)cc1`: the EC50 was 0.1 µM in assay [1], 0.46 µM in assay [2], 0.52 µM in assay [3] and 0.05 µM in assay [4].
Consider `Fc1cccc(-n2nc(-c3cccc(-c4ccccc4)c3)nc2-c2ccccc2)c1`, for which the EC50 in assay [1] is 3.22 µM; in assay [2] it was 1.16 µM; in assay [3] it was greater than 10 µM; in assay [4], greater than 10 µM.
